Measured values taken from US9726662B2, “Assay for drug discovery based on in vitro differentiated cells” (AXIOGENESIS AG, priority 2004, dated 2017).
Non-standard residues stand in square brackets, D forms with d. Residues, ends and D or L forms follow the SMILES beside them. No end group written: not given here.

Tests used:
[1] = tested on: ES cell-derived cardiomyocytes; experiment: Interference of compounds with ET-1- or PE-induced hypertrophy of ES cell-derived cardiomyocytes (ANF/BNP RT-PCR); format: cell-based, mouse; settings: for ANF induction (up-regulation) upon ET-1 stimulation, in words / BNP induction (up-regulation) upon ET-1 stimulation, in words: 100 nM ET-1, 24 h; for ANF induction (up-regulation) upon ET-1 stimulation, in words / BNP induction (up-regulation) upon ET-1 stimulation, in words / ANF induction (up-regulation) upon PE stimulation, in words / BNP induction (up-regulation) upon PE stimulation, in words: compound concentration as in Table 1, summary of Table 1; for ANF induction (up-regulation) upon PE stimulation, in words / BNP induction (up-regulation) upon PE stimulation, in words: 100 μM PE;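 for all read-outs here: mRNA levels of ANF and BNP quantified from RT-PCR products by densitometry of bands after agarose gel separation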
Procedure: PCR products were separated by agarose gel electrophoresis and band intensity was analysed using the BioDocAnalyze system (Biometra).
ES cell-derived cardiomyocytes were stimulated with either 100 nM endothelin-1 (ET-1) or 100 μM phenylephrine (PE) in the presence of the compounds indicated. After 24 hours expression of ANF and BNP mRNA was analyzed by RT-PCR.

[2] = tested on: ES cell-derived cardiomyocytes; experiment: Size of ES cell-derived cardiomyocytes upon hypertrophic stimulation (microscopy, FIG. 1); format: cell-based; settings: 24 h serum starvation, then 24 h stimulation; endothelin-1 100 nM or phenylephrine 200 μM; on inactivated mouse embryonic fibroblasts
Procedure: (§1) Hypertrophic cardiomyocytes in that cell culture system are characterized by increased size, increased protein synthesis, increase in sarcomeric assembly and reexpression of a fetal gene program, e.g. enhanced expression of the ANF (atrial natriuretic factor) gene. In order to test if embryonic stem (ES) cell-derived cardiomyocytes display similar features upon stimulation, the following experiments were performed. Green fluorescent cardiomyocytes were generated in accordance with the teachings of in international applications WO99/01552 and WO02/051987 in the following way. ES cells (line D3, ATCC, CRL 1934) that were transfected with a bi-cistronic vector containing the genes for green fluorescent protein (GFP) and puromycin-resistance under the transcriptional control of the […] heavy chain promoter (see WO02/051987), were induced to form aggregates (embryonic bodies, EBs) in the absence of LIF either according to the method in WO99/01552 and WO2/051987, respectively, or as described in European patent application no. 03015401.7. EBs were cultured for 9 days in IMDM (Invitrogen) supplemented with 20% FCS (Invitrogen, batch controlled) at 37° C., 5% CO2 and 95% humidity on 10 cm bacteriological dishes (Greiner). Subsequently, puromycin (Sigma, 2.5 μg/ml) was added to the cell culture medium and cells were cultured for further 10 days. […]

[3] = tested on: ES cell-derived cardiomyocytes; experiment: Sarcomeric organization, immunostaining for sarcomeric alpha-actinin (FIG. 2); format: cell-based, mouse; settings: 24 h serum starvation, then 24 h stimulation, endothelin-1 100 nM or phenylephrine 200 μM
Procedure: as §1

[4] = tested on: ES cell-derived cardiomyocytes; experiment: Induction of ANF and BNP expression by hypertrophic stimuli (RT-PCR, FIG. 3); format: cell-based, mouse; settings: suspension culture; 24 h serum starvation, then 24 h stimulation; endothelin-1 100 nM, phenylephrine 200 μM, Angiotensin II 100 nM
Procedure: Cardiomyocytes differentiated from ES cells were serum-starved for 24 h and subsequently stimulated by endothelin-1 (100 nM; lanes 1, 6, 11), phenylephrine (200 μM; lanes 2, 7, […]) or Angiotensin II (100 nM; lanes 3, 8, 13). Non-stimulated controls were cultured in serum-free medium (lanes 4, 9, 14) or serum-supplemented medium (lanes 5, 10, 15). Subsequently, RNA was extracted and cDNA was synthesized using random hexamer priming. ANF, BNP, and gapdh cDNAs were amplified and PCR products were analyzed by agarose gel electrophoresis. M, size marker. Amplification parameters were as follows. cDNAs were amplified for 32 (ANF and BNP) or 26 (gapdh) PCR cycles consisting each of 1 min at 94° C., 1 min at 56° C., and 1 min at 72° C. The following primers were used: ANF-5′, 5′-[…]-3′ (SEQ ID NO: 14); ANF-3′, 5′-[…]-3′ (SEQ ID NO: 15); BNP-5′, 5′-[…]-3′ (SEQ ID NO: 18); BNP-3′, 5′-[…]-3′ (SEQ ID NO: 19); gapdh-5′, 5′-[…]-3′ (SEQ ID NO: 16); gapdh-3′ 5′-[…]-3′ (SEQ ID NO: 17). Expected PCR product sizes were 468 bp (ANF), 242 bp (BNP), and 349 bp (gapdh).
In a further experiment, the possible induction of an early embryonic gene program upon stimulation by endohelin-1, angiotensin II, or phenylephrine was analysed. To this end, puromycin resistant ES cell-derived cardiomyocytes were obtained as described above; however, after the final […] in puromycin containing medium cells were not transferred to a feeder layer but were kept in suspension culture. Following serum-starvation for 24 h by cultivation in Medium 199, cells were stimulated for 24 h by addition of endothelin-1, phenyleprine, or angiotensin II (Sigma). RNA was extracted and reverse transcribed using standard methods.
Expression of ANF and brain natriuretic peptide (BNP) was analysed by PCR amplification of the respective cDNAs.

[5] = compound 1 μM, stimulus 100 nM ET-1, 24 h, relative to ET-1-stimulated sample without test compound (=100%)
[6] = compound 1 μM, stimulus 100 μM PE, 24 h, relative to PE-stimulated sample without test compound (=100%)
[7] = compound 100 nM, stimulus 100 nM ET-1, 24 h, relative to ET-1-stimulated sample without test compound (=100%)
[8] = compound 100 nM, stimulus 100 μM PE, 24 h, relative to PE-stimulated sample without test compound (=100%)
[9] = compound 10 μM, stimulus 100 nM ET-1, 24 h, relative to ET-1-stimulated sample without test compound (=100%)
[10] = compound 10 μM, stimulus 100 μM PE, 24 h, relative to PE-stimulated sample without test compound (=100%)

`CC(C)C[C@@H]1NC(=O)[C@@H](C(C)C)NC(=O)[C@@H]2CCCN2C(=O)[C@@H](CC(=O)O)NC(=O)[C@@H](Cc2c[nH]c3ccccc23)NC1=O` [BQ123] (cyclo(L[dW][dD]P[dV])) was tested, and the “ANF induction (up-regulation) upon ET-1 stimulation, in words” value [1] was “inhibit”, the “BNP induction (up-regulation) upon ET-1 stimulation, in words” value [1] was “inhibit” and the “ANF induction (up-regulation) upon PE stimulation, in words” value ([1]; 24 h) was “not”. The ANF expression [1, 5] was 50%, the BNP expression [1, 5] was 60% and the ANF expression [1, 6] was 100% (no effect). For the same molecule, the BNP expression [1, 6] was 100% (no effect).

In the case of `CCCC[C@@H](NC(=O)[C@@H](Cc1cn(C(=O)OC)c2ccccc12)NC(=O)[C@H](CC(C)(C)C)NC(=O)N1[C@H](C)CCC[C@@H]1C)C(=O)O` [BQ788], the “ANF induction (up-regulation) upon ET-1 stimulation, in words” value [1] is reported as “inhibit”, the “BNP induction (up-regulation) upon ET-1 stimulation, in words” value [1] is reported as “inhibit” and the “ANF induction (up-regulation) upon PE stimulation, in words” value ([1]; 24 h) is reported as “not”. The ANF expression [1, 5] was 70%, the BNP expression [1, 5] was 70% and the ANF expression [1, 6] was 100% (no effect). The BNP expression [1, 6] was 100% (no effect).

With `COC(=O)C1=C(C)NC(C)=C(C(=O)OC)C1c1ccccc1[N+](=O)[O-]` [Nifedipine] the ANF expression [1, 7] was 100% (no effect), the BNP expression [1, 7] was 10% and the ANF expression [1, 8] was 20%. The BNP expression [1, 8] was 20%.

`COc1cc2nc(N3CCN(C(=O)c4ccco4)CC3)nc(N)c2cc1OC` [Prazosin] was tested, and the “ANF induction (up-regulation) upon ET-1 stimulation, in words” value [1] was “no inhibition”, the “BNP induction (up-regulation) upon ET-1 stimulation, in words” value [1] was “no inhibition” and the “ANF induction (up-regulation) upon PE stimulation, in words” value ([1]; 24 h) was “inhibition”. The “BNP induction (up-regulation) upon PE stimulation, in words” value ([1]; 24 h) was “inhibition”, the ANF expression [1, 9] was 100% (no effect) and the BNP expression [1, 9] was 100% (no effect). It also gave an ANF expression [1, 10] of 40% and a BNP expression [1, 10] of 40%.

With `CN[C@@H]1C[C@H]2O[C@@](C)([C@@H]1OC)n1c3ccccc3c3c4c(c5c6ccccc6n2c5c31)C(=O)NC4` [Staurosporine] the “ANF induction (up-regulation) upon ET-1 stimulation, in words” value [1] was “inhibited”, the “BNP induction (up-regulation) upon ET-1 stimulation, in words” value [1] was “inhibited” and the “ANF induction (up-regulation) upon PE stimulation, in words” value ([1]; 24 h) was “inhibited”. For the same molecule, the “BNP induction (up-regulation) upon PE stimulation, in words” value ([1]; 24 h) was “inhibited”, the ANF expression [1, 7] was 30% and the BNP expression [1, 7] was 30%. It also gave an ANF expression [1, 8] of 30% and a BNP expression [1, 8] of 30%.

With `COc1ccc(CCN(C)CCCC(C#N)(c2ccc(OC)c(OC)c2)C(C)C)cc1OC` (stereo not drawn) [Verapamil] the ANF expression [1, 5] was 100% (no effect), the BNP expression [1, 5] was 30% and the ANF expression [1, 6] was 40%. For the same molecule, the BNP expression [1, 6] was 20%.

For `CNC[C@H](O)c1cccc(O)c1` [phenylephrine], the “cardiomyocyte size upon stimulation” value [2] was “increase in size”, the “sarcomeric organization upon stimulation” value [3] was “increase in sarcomeric organization” and the “ANF expression compared to control” value [4] was “increased”. The “BNP expression compared to control” value [4] was “increased”.

“Angiotensin II [hypertrophic agonist (Sigma) used as stimulus]” was tested, and the “ANF expression compared to control” value [4] was “modest increase” and the “BNP expression compared to control” value [4] was “modest increase”.

With “endothelin-1 (CSCSSLMDKECVYFCHLDIIW; ends and bridges not checked; cysteine pairing not given here; UniProt P05305 53-73, looked up) [hypertrophic agonist (Sigma) used as stimulus]” the “cardiomyocyte size upon stimulation” value [2] was “increase in size”, the “sarcomeric organization upon stimulation” value [3] was “increase in sarcomeric organization” and the “ANF expression compared to control” value [4] was “increased”. The “BNP expression compared to control” value [4] was “increased”.
